Data as given in patent US4616028A, “Substituted 2,3,4,9-tetrahydro-1H-carbazole-1-acetic acid derivatives, compositions and use” (American Home Products Corporation, priority 1985, dated 1986).
Counter-ions that a name gives are not always drawn.

Legend:
Adjuvant Edema = assay: Preventative Adjuvant Edema (Freund's complete adjuvant, hind paw volume); type: in vivo, rat (male Sprague Dawley); conditions: for ED50: ED50, rat (second results table); for Preventative Adjuvant Edema % Inhibition: p.o., rat
Procedure: This test is a primary screen for anti-inflammatory drugs.
Male Sprague Dawley rats (180-200 g) are used. The animals have free access water but food is withdrawn 18 hours before testing.
Drug Preparations and Administration:
Freund's complete adjuvant is prepared by suspending 5 mg killed and dried Mycobacterium butyricum (Difco) in 1 ml liquid paraffin. The test compounds are dissolved in distilled water or suspended in distilled water with a few drops of Tween 80 according to their solubility. For primary screening all drugs are administrated by gastric lavage at the arbitrary dosage of 100 mg/kg, p.o. in a volume of 0.5 ml/100 g body weight to groups of 10 animals.
The method is essentially that described by Wax et al., J. Pharmacol. Exp. Ther., 192, 166-171 (1975). Groups of rats are injected intradermally in the left hind paw with 0.1 ml of Freund's complete adjuvant. The test compound or vehicle is administrated before the adjuvant, 24 hours and 48 hours after the adjuvant (day 0, 1 and 2). The injected hind paw volume is measured before the injection of adjuvant and 24 hrs. after the last drug administration (day 3) by means of a plethysmometer (Buxco Electronics Inc.). The difference between then hind paw volume on day 0 and day 3 represents the edema volume. Phenylbutazone (50 mg/kg, p.o.) is included as a positive control.
The mean edema volume (expressed as ml±SEM) is calculated for each group and the percentage protection conferred by the drug is calculated:
where c is the mean edema volume for the untreated controls and t is the mean edema volume for the drug treated group.

Phenylquinone Writhing = assay: Phenylquinone-induced writhing in mice; type: in vivo, mouse (male Swiss albino); conditions: for ED50: ED50, mice (second results table); for Phenylquinone Writhing in Mice % Inhibition: p.o.
Procedure: A further test used to determine the utility of the compounds of the present invention is designated: DRUG EFFECTS ON PHENYLQUINONE-INDUCED WRITHING IN MICE […]
The objective of this test is to determine the ability of test drugs to inhibit the nociceptive (pain) response of mice injected with a chemical irritant. This test is a primary screen for both peripheral and centrally acting analgesic drugs.
Male Swiss albino mice (15-25 g). The animals are fasted for 18 hours prior to use but have free access to water.
(§1) Drug Preparation and Administration:
Drugs are dissolved or suspended according to their solubility in 0.5% methyl cellulose or 0.5% Tween 80. They are administered by gastric lavage in a volume of 5 ml/kg. For primary screening all drugs are administered at the arbitrary dosage of 200 mg/kg, p.o. to a group of 10 mice.
A modification of the method of Siegmund at el., Proc. Soc. Exp. Biol. Med., 95, 729-731 (1957) is used. Groups of 5 mice are dosed with the test compound or vehicle control. Sixty minutes later the animals are injected i.p. with 0.3 ml/20 g body weight of a 0.02% solution of phenylquinone (PBQ; 2-phenyl-1,4-benzoquinone) and placed in individual observation boxes. The numer of writhing or abdominal squirming movements made by each mouse during the following 15 min. period is counted. The experiment is repeated with another group of 5 mice and the mean number of writhes per mouse for a group of 10 mice is calculated.
Drug treated and vehicle-treated control groups are compared and the percentage protection conferred by the drug is calculated:
Percentage protection=(c-t)100/c […]
where c=mean number of writhes in the control group where t=mean number of writhes in the test drug group

inflamed paw = assay: Paw Pressure Test in the Rat (Freund's adjuvant inflamed paw, pain threshold); type: in vivo, rat (male Sprague Dawley); conditions: po
Excerpt: A still further test used to determine the utility of the compounds of the present invention is designated: PAW PRESSURE TEST IN THE RAT
The objective of this test is to assess the potency of peripheral and central acting drugs in inhibiting the reaction of rats to painful stimulation applied to an inflamed paw.
Male Sprague Dawley rats (180-200 g) are used. The animals are fasted overnight prior to drug administration.
as §1
Freund's Complete Adjuvant (FCA) is prepared by suspending 5 mg killed and dried mycobacterium butyricum (Difco) in 1 ml liquid paraffin. The test compounds are dissolved, or suspended with a few drops of Tween 80, in distilled water according to their solubility. They are administered by gastric gavage in a volume of 0.5 ml/100 g body weight to groups of 10 animals.
Ten rats are used per group. The method is essentially that described by Randall, et al., Arch. Int. Pharmacodyn. 111, 409 (1957) and the apparatus which is used to apply pressure to the paw (Analgesy-meter for the rat paw, Ugo Basile from Coulbourn Instruments) is a modification of that described by Gilfoil et al., J. Pharmacol, 142, 1 (1963). The instrument is basically a device which exerts a force that increases at a constant rate. The force is continuously monitored by a pointer moving along a linear scale and is measured in grams. The inflammatory reaction is induced in the left hind paw of rats by injecting 0.1 ml of Freund's adjuvant intradermally. The test compound or vehicle is administered 24 hours after the adjuvant. Prior to drug administration the rats are selected for their paw sensitivity. Rats responding to a pain threshold greater than 10 g applied to the inflamed paw are rejected. The pain threshold (vocalization) is determined 1 and 3 hours later in the inflamed paw and the normal paw of the treated and control groups. The higher of the 2 readings will be considered as representative of the drug effect on the pain threshold.
Presentation of results and Criteria for Activity:
Each animal which has a reading 1.5 times greater than the mean reading of the control-group will be considered as responsive to treatment. The number of animals showing an analgesic effect is then determined in each group.
The ED50 (dose which causes analgesia in 50% of the animals) using at least 3 doses is then determined, by the method described in Litchfield et al., J. Pharmacol. Exp. Ther., 96, 99 (1949).

[1] = ED50, rat (second results table)
[2] = po, 72 h, rat (second results table), read-out: Preventative Adjuvant Edema percent inhibition
[3] = dose which causes analgesia in 50% of the animals, rat

Structure (SMILES)	ED50 (Phenylquinone Writhing; Mus musculus, po)	ED50 (inflamed paw; [1])	inhibition in vivo at 25 mg/kg (Adjuvant Edema; [2])	other results
C=CC[C@@H]1CC[C@](CC)(CC(=O)O)c2[nH]c3cc(Cl)ccc3c21 (relative stereo) [Example 20]	5.1 mg/kg	0.38 mg/kg		ED50 (Adjuvant Edema; po): 5.4 mg/kg
C=CC[C@@H]1CC[C@](CC)(CC(=O)O)c2[nH]c3c(Br)ccc(C)c3c21 (relative stereo) [Example 33]	4.5 mg/kg	0.93 mg/kg	27%	
C=CC[C@H]1CC[C@](CC)(CC(=O)O)c2[nH]c3c(CC)cccc3c21 (relative stereo) [Example 4]		0.02 mg/kg	35%	inhibition in vivo at 100 mg/kg (Phenylquinone Writhing; Mus musculus, po, dose 100 mg/kg, mice (second results table), read-out: Phenylquinone Writhing in Mice percent inhibition): 9%
C=CC[C@@H]1CC[C@](CC)(CC(=O)O)c2[nH]c3ccc(CC)cc3c21 (relative stereo) [Example 6]	103 mg/kg	0.01 mg/kg	21%	inhibition in vivo at 10 mg/kg (Adjuvant Edema; [2]): 36%
C=CC[C@@H]1CC[C@](CC)(CC(=O)O)c2[nH]c3ccccc3c21 (relative stereo) [Example 3, cis-1-Ethyl-2,3,4,9-tetrahydro-4-(2-propenyl)-1H-carbazole-1-acetic Acid]				Preventative Adjuvant Edema % Inhibition (Adjuvant Edema; 10 mg/kg): 50%; Phenylquinone Writhing in Mice % Inhibition (Phenylquinone Writhing; 20 mg/kg): 50%; ED50 (inflamed paw; [3]): 0.01 mg/kg
C=CC[C@@H]1CC[C@](CC)(CC(=O)O)c2[nH]c3c(C)ccc(C)c3c21 (relative stereo) [Example 31]	2.3 mg/kg	0.3 mg/kg	42%	
C=CCC1CCC(C)(CC(=O)O)c2[nH]c3ccccc3c21 (stereo not drawn) [Example 12]	18.7 mg/kg	1.9 mg/kg		ED50 (Adjuvant Edema; po): 6 mg/kg
C=CC[C@@H]1CC[C@](CC)(CC(=O)O)c2[nH]c3c(CCC)cccc3c21 (relative stereo) [Example 5]	28.7 mg/kg	0.009 mg/kg	39%	inhibition in vivo at 10 mg/kg (Adjuvant Edema; [2]): 29%
C=CC[C@@H]1CC[C@](CC)(CC(=O)O)c2[nH]c3ccc(CCCC)cc3c21 (relative stereo) [Example 8]	10.6 mg/kg	0.2 mg/kg		inhibition in vivo at 5 mg/kg (Adjuvant Edema; po, 72 h, dose 5 mg/kg, rat (second results table), read-out: Preventative Adjuvant Edema percent inhibition): 56%
C=CC[C@H]1CC[C@@](CC)(CC(=O)O)c2[nH]c3c(CC)cccc3c21 [Example 45, (1S-cis)-1,8-Diethyl-2,3,4,9-tetrahydro-4-(2-propenyl)-1H-carbazole-1-acetic Acid Benzenemethanamine Salt (1:1)]		0.011 mg/kg	54%	inhibition in vivo at 25 mg/kg (Phenylquinone Writhing; Mus musculus, po, dose 25 mg/kg, mice (second results table), read-out: Phenylquinone Writhing in Mice percent inhibition): 94%
C=CC[C@@H]1CC[C@](CC)(CC(=O)O)c2[nH]c3c(CC)cccc3c21 (relative stereo) [Example 1, cis-1,8-Diethyl-2,3,4,9-tetrahydro-4-(2-propenyl)-1H-carbazole-1-acetic Acid]				Preventative Adjuvant Edema % Inhibition (Adjuvant Edema; 10 mg/kg): 31%; Preventative Adjuvant Edema % Inhibition (Adjuvant Edema; 25 mg/kg): 44%; Preventative Adjuvant Edema % Inhibition (Adjuvant Edema; 50 mg/kg): 38%; Phenylquinone Writhing in Mice % Inhibition (Phenylquinone Writhing; 10.6 mg/kg): 31%; Phenylquinone Writhing in Mice % Inhibition (Phenylquinone Writhing; 25 mg/kg): 60-80%; Phenylquinone Writhing in Mice % Inhibition (Phenylquinone Writhing; 200 mg/kg): 94%; ED50 (inflamed paw; [3]): 0.02 mg/kg
C=CC[C@@H]1CC[C@](CC)(CC(=O)O)c2[nH]c3c(C)cccc3c21 (relative stereo) [Example 11, cis-1-ethyl-2,3,4,9-tetrahydro-8-methyl-4-(2-propenyl)-1H-carbazole-1-acetic acid]	8.3 mg/kg	0.33 mg/kg		ED50 (Adjuvant Edema; po): 8.5 mg/kg
